Measured values taken from patent US12268676B2, “Antiviral applications of picolinic acid and its derivatives” (INDIAN INSTITUTE OF SCIENCE, priority 2021, dated 2025).
Where “and” joins values, the source holds several entries; their conditions need not be identical. Identical values can stand only once. Like-named read-outs stand apart in the source and are kept apart here.

Legend:
[1] = tested on: A549 cells; experiment: Cytotoxicity of PA, Alamar Blue cell viability; assay type: cell-based, human
Description: Cytotoxicity of picolinic acid (PA) was tested by incubating human lung epithelial cells (A549 cells) with increasing concentrations of PA for up to 72 hrs and cell viability was measured at every 12 hr time intervals using Alamar Blue cell viability reagent (FIG. 1A). A549 cells were procured from ATCC, Manassas, Va., USA.
A549 cells were seeded in 96-well cell culture dishes and 24 hr later treated with 0.02, 0.2, 2, and 20 mM PA in triplicates. Cells were then incubated at 37° C., 5% CO2, and cytotoxicity was measured at 12, 24, 36, 48, 60, and 72 hr post-treatment using AlamarBlue™ Cell Viability Reagent (DAL 1025, Thermo Fisher) as per manufacturer's instructions.

[2] = tested on: Influenza virus (NS1 Luc); experiment: microbe, parasite or virus in culture; assay type: cell-based, Influenza A virus; conditions: unidentified influenza virus, A549, read-out: inhibition of virus (luminescence, percentage of untreated virus control)
[3] = tested on: Para Influenza virus (HPIV Luc); experiment: microbe, parasite or virus in culture; assay type: cell-based, Human parainfluenza virus; conditions: unidentified influenza virus
[4] = tested on: PR8 WT virus (strain A/Puerto Rico/8/1934 H1N1); assay type: cell-based, Influenza A virus
[5] = tested on: pseudotyped SARS CoV-2 particles; experiment: microbe, parasite or virus in culture; assay type: cell-based
[6] = tested on: SARS-CoV-2 (isolate hCoV-19/Hong Kong/VM20001061/2020); experiment: SARS-CoV-2 multi-cycle infection, viral RNA by qRT-PCR; assay type: cell-based; conditions: for decrease in total viral RNA copy numbers: 0.01 MOI, 48 hr (FIG. 6)
[7] = tested on: Influenza A viruses (IAVs); experiment: microbe, parasite or virus in culture; assay type: cell-based, Influenza A virus
[8] = tested on: Zika Luc; experiment: microbe, parasite or virus in culture; assay type: cell-based; conditions: A549, 48 h, read-out: inhibition (luciferase, normalized with untreated control)
[9] = tested on: SARS-CoV-2; experiment: SARS CoV-2 infection studies in the hamster model; assay type: in vivo, Syrian golden hamsters; conditions: for viral RNA load mitigated by: 20 mg/kg PA therapeutic treatment
[10] = tested on: SARS-CoV-2 spike protein; experiment: SARS-CoV-2 spike induced syncytia assay; assay type: cell-based; conditions: Severe acute respiratory syndrome coronavirus 2, Vero C1008, 24 h, read-out: inhibition of syncytia (area, percentage of untreated control)
[11] = tested on: Tf647 labelled endocytic vesicles; experiment: Localization of transferrin labelled vesicles, confocal microscopy; assay type: cell-based; conditions: VeroE6, 2 mM PA, 100 MOI PR8 WT virus
Description: Localization of transferrin labelled vesicles: Vero cells were seeded on glass coverslips in a 12 well dish to reach 70-80% confluency next day. After 3 hr treatment/not with 2 mM PA, cells were washed once with ice cold PBS and the plate was placed on ice for 10 min before incubating with OptiMEM containing PR8 wild type virus (100 MOI) and 25 μg/mL Transferrin 647 (Tf-647) for 1 hr on ice. Cells were washed twice with PBS and the plate moved to 37° C. After a 15 min chase, cells were fixed with 4% PFA, labelled with anti influenza virus HA antibody (PY102) followed by anti-mouse Alexa 488 secondary antibody to label the virus particles. Nuclei were labelled using 0.1 μg/mL DAPI. Images were acquired using a Zeiss LSM-880 Multiphoton microscope.
The dispersion of transferrin labelled vesicles from perinuclear region to cell periphery was quantified by drawing region of interests (ROIs) up to 20 μm away from the nuclei. The fluorescence intensity of Tf-647 labelled vesicles was then measured along this distance using ImageJ/Fiji.

[12] = tested on: PR8 WT virus particles; parameters: species or system Influenza A virus
[13] = tested on: CVB3; experiment: CVB3 multi-dose infection, plaque assay of supernatants; assay type: cell-based, Coxsackie virus B3; conditions: Vero cells, increasing concentrations of PA, 0.1 MOI, 48 hr p.i.
Description: Further, Vero cells were pre-treated with increasing concentrations of PA as indicated and infected with 0.1 MOI CVB3 in the presence of drugs. 48 hr p.i, cell culture supernatants were used to quantify infectious virus by plaque assay.

[14] = tested on: M. smegmatis cells; experiment: Bacterial toxicity assay, OD600; assay type: cell-based, Mycobacterium smegmatis; conditions: up to 24 hr, least concentration tested
Description: Since most of the naked viruses tested were not inhibited by PA, whether PA would be effective against TM4 mycobacteriophages. M. smegmatis cells in a 48 well plate were treated with increasing concentrations of PA as indicated and OD600 measurements were taken periodically up to 24 hr. […] For the antiviral assay, 1 mM PA was either added at the start of experiment or 3 hr prior to infection. In either case, there was no protection from TM4 mycobacteriophage induced cell death (FIG. 12, panel G).
Bacterial toxicity assay: PA stock solution of 1M concentration was prepared in sterile deionized water and diluted to obtain different concentrations (1 mM, 5 mM, 10 Mm, 20 mM, and 40 mM), in a 48-well plate. A total of 2×10^5 cells of M. smegmatis were added to each of the wells. The 48-well plate was placed in a rotary shaker incubator at 37° C. for 24 h. Readings were taken periodically using a Tecan Spark multi-mode plate reader at 600 nm.

## O=C(O)c1ccccn1 [PA, pyridine-2-carboxylic acid]
[1]; 20 mM PA, 36 hr post treatment
  cell viability: loss of cell viability
[1]; over the period of 72 hr
  drug concentration non-toxic to cells: up to 2 mM
[2]
  inhibition at 2000 µM: 70 to 80%
[3]; A549, 48 h, read-out: inhibition in reporter virus assay
  inhibition at 2000 µM: 80 to 90%
[3]; A549, read-out: inhibition of virus (luminescence, percentage of untreated virus control)
  inhibition at 2000 µM: 70 to 80%
[4]
  decrease in NP positive cells: no decrease
  decrease in number of NP positive cells compared to virus control: 75% and 40%
  expression levels of virus NP by western blot, virus control vs PA treated: no difference
[5]
  more effective than CM: ~10%
[5]; Severe acute respiratory syndrome coronavirus 2, 60 h, read-out: inhibition of SARS-CoV-2 spike pseudotyped particles (firefly luciferase normalized to virus control)
  inhibition at 2000 µM: 90%
[5]; Severe acute respiratory syndrome coronavirus 2, read-out: inhibition of pseudotyped SARS CoV-2 virus entry
  inhibition at 2000 µM: > 50%
[6]; Calu3, 2 mM PA
  decrease in total viral RNA copy numbers: ~1 log10
[6]; Calu3, 2 mM PA, 0.1 MOI, 48 hr (FIG. 7E)
  reduction in viral load: 2 log
[6]; HEK ACE2, 2 mM PA
  decrease in total viral RNA copy numbers: three
[6]; VeroE6, 2 mM PA
  decrease in total viral RNA copy numbers: three
[7]
  reduction in virus titer: 3 fold
[7]; Influenza A virus, PR8, MDCK2, 48 h, read-out: maximum inhibition of infectious virus (plaque assay)
  inhibition at 2000 µM: 50%
[8]
  inhibition at 2000 µM: > 90%
[9]; 20 mg/kg PA prophylactically by IP injection
  reduction in lung viral load: ~2.5 fold
[9]; 20 mg/kg PA prophylactically, delivered orally
  decrease in lung viral load: 1 log
[9]; IP route
  viral RNA load mitigated by: ~1 log
[9]; oral route
  viral RNA load mitigated by: ~1 log
[9]; 20 mg/kg PA, prophylactic and therapeutic groups
  body weight and lung weight compared to mock treated animals: body weight as well as corresponding lung weight rescue
[9]; PA treated groups vs mock treated
  gross lung pathology and inflammation (images of whole lungs): much of the pathology reduced
[9]; PA treatment groups
  histopathology analysis and scoring of lung sections: decreased pathology
[10]
  inhibition at 1000 µM: 70%
  inhibition at 2000 µM: 80%
[11]
  distance of Tf647 labelled endocytic vesicles from the nuclei: 15-20 microns
[12]
  virion structural integrity by TEM compared to untreated control: severe disruption of viral envelope
[13]
  infectious virus in supernatants (plaque assay): did not imply any differences
[14]
  non-toxic concentration (OD600): 1 mM
